Source: ChEMBL document CHEMBL1201862, “PubChem BioAssay data set” (2004)
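How tested: cells in 96-well plates exposed to compound for 48 hours at five concentrations. GI50: concentration for 50% inhibition of growth.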 Activity calls are given as the source filed them. No stated cut-off is given here; in the data, active = GI50 up to about 1.1 µM and inactive = higher.

Legend:
Assay in all cases: inhibition of tumour cell growth, NCI panel, 48 h
SK-MEL-2 = tested on: SK-MEL-2
LOX IMVI = tested on: LOX IMVI
SF-539 = tested on: SF-539
PC-3 = tested on: PC-3
KM12 = tested on: KM12
UO-31 = tested on: UO-31
SN12C = tested on: SN12C
SNB-75 = tested on: SNB-75
SNB-19 = tested on: SNB-19
OVCAR-4 = tested on: OVCAR-4
MDA-N = tested on: MDA-N
MDA-MB-435 = tested on: MDA-MB-435
SK-OV-3 = tested on: SK-OV-3
DU-145 = tested on: DU-145
A498 = tested on: A498
HCT-15 = tested on: HCT-15
SR = tested on: SR
A549 = tested on: A549
U-251 = tested on: U-251
NCI-H23 = tested on: NCI-H23

| Structure (SMILES) | GI50 (SK-MEL-2) | GI50 (LOX IMVI) | GI50 (SF-539) | GI50 (PC-3) | GI50 (KM12) | GI50 (UO-31) | GI50 (SN12C) | GI50 (SNB-75) | GI50 (SNB-19) | GI50 (OVCAR-4) | GI50 (MDA-N) | GI50 (MDA-MB-435) | GI50 (SK-OV-3) | GI50 (DU-145) | GI50 (A498) | GI50 (HCT-15) [µM] | GI50 (SR) | GI50 (A549) | GI50 (U-251) | GI50 (NCI-H23) |
| --- | --- | --- | --- | --- | --- | --- | --- | --- | --- | --- | --- | --- | --- | --- | --- | --- | --- | --- | --- | --- |
| CC(=O)C1=CN=C2C(=O)N(c3ccccc3)N(C)C12C (centres undefined) | > 100 µM (inactive) | > 100 µM (inactive) | > 100 µM (inactive) | > 100 µM (inactive) | 3.08 µM (inactive) | > 100 µM (inactive) | > 100 µM (inactive) | 24.7 µM (inactive) | > 100 µM (inactive) | > 100 µM (inactive) | > 100 µM (inactive) | > 100 µM (inactive) | > 100 µM (inactive) | > 100 µM (inactive) | > 100 µM (inactive) | 69.7 | > 100 µM (inactive) | > 100 µM (inactive) | > 100 µM (inactive) | > 100 µM (inactive) |
| CC1(C)OC[C@@H](C[C@H](O)COCc2ccccc2)O1 | > 100 µM (inactive) | > 100 µM (inactive) | > 100 µM (inactive) | > 100 µM (inactive) | > 100 µM (inactive) | > 100 µM (inactive) | > 100 µM (inactive) | > 100 µM (inactive) | > 100 µM (inactive) | > 100 µM (inactive) | > 100 µM (inactive) | > 100 µM (inactive) | > 100 µM (inactive) | > 100 µM (inactive) | > 100 µM (inactive) | > 100 | > 100 µM (inactive) | > 100 µM (inactive) | > 100 µM (inactive) | > 100 µM (inactive) |
| CCn1c(SCC(=O)NNC(=S)Nc2ccc(Cl)cc2)nc2ccccc2c1=O | 74.8 µM (inactive) | 30.1 µM (inactive) | 58.1 µM (inactive) | 27.2 µM (inactive) | 83 µM (inactive) | 32 µM (inactive) | 47.5 µM (inactive) | > 100 µM (inactive) | > 100 µM (inactive) | 40 µM (inactive) | 55.3 µM (inactive) | 42.1 µM (inactive) | 53.8 µM (inactive) | 55.6 µM (inactive) | 46.9 µM (inactive) | 38.5 | 43.9 µM (inactive) | 40.6 µM (inactive) | 46.9 µM (inactive) | 45.3 µM (inactive) |
| Cc1cc(C)nc(NC(=S)Nc2cccc(Cl)c2)c1 | > 100 µM (inactive) | > 100 µM (inactive) | > 100 µM (inactive) | > 100 µM (inactive) | > 100 µM (inactive) | > 100 µM (inactive) | > 100 µM (inactive) | > 100 µM (inactive) | > 100 µM (inactive) | > 36.6 µM (inactive) | > 100 µM (inactive) | > 100 µM (inactive) | > 100 µM (inactive) | > 100 µM (inactive) | > 47.3 µM (inactive) | > 100 | 16.6 µM (inactive) | 20.8 µM (inactive) | > 100 µM (inactive) | > 100 µM (inactive) |
| CN(C)c1ccc(/C=C2\N=C(NN)NC2=O)cc1 | > 100 µM (inactive) | 35.3 µM (inactive) | 35.2 µM (inactive) | 40.2 µM (inactive) | 41.1 µM (inactive) | 94.6 µM (inactive) | > 100 µM (inactive) | > 100 µM (inactive) | > 100 µM (inactive) | 79.4 µM (inactive) | 73.8 µM (inactive) | 58.6 µM (inactive) | > 100 µM (inactive) | 76.7 µM (inactive) | 98.2 µM (inactive) | 50.8 | 23.4 µM (inactive) | 61.8 µM (inactive) | 47.6 µM (inactive) | > 100 µM (inactive) |
| CCN(CC)CCNC(=O)c1cn2c(ccc3sc4ccccc4c(=O)c32)n1 | 21 µM (inactive) | 9.18 µM (inactive) | 10.8 µM (inactive) | 10.8 µM (inactive) | 12.2 µM (inactive) | 7.03 µM (inactive) | 9.33 µM (inactive) | 16.3 µM (inactive) | 11.5 µM (inactive) | 7.89 µM (inactive) | 14.1 µM (inactive) | 16.7 µM (inactive) | 12.1 µM (inactive) | 12 µM (inactive) | 15.3 µM (inactive) | 5.21 | 1.25 µM (inactive) | 4.36 µM (inactive) | 13.7 µM (inactive) | 11.2 µM (inactive) |
| Cc1cc(S(=O)(=O)Nc2nc(N)n(-c3ccccn3)n2)c(S)cc1Cl | > 100 µM (inactive) | > 100 µM (inactive) | > 100 µM (inactive) | > 100 µM (inactive) | > 100 µM (inactive) | > 100 µM (inactive) | > 100 µM (inactive) | > 100 µM (inactive) | > 100 µM (inactive) | > 100 µM (inactive) | > 100 µM (inactive) | > 100 µM (inactive) | > 100 µM (inactive) | > 100 µM (inactive) | > 100 µM (inactive) | > 100 | > 100 µM (inactive) | > 100 µM (inactive) | > 100 µM (inactive) | – |
